Laboratory results taken from PubChem BioAssay AID248 (DTP/NCI, 2004).
“And” between values parts separate entries of the source, which are not always exact repeats. Equal values may be shown once. Toxic doses and inconclusive results are not listed.

Test system: L1210 leukemia ip in BDF1 mice, survival T/C
Experiment: NCI In Vivo Anticancer Drug Screen. Data for tumor model L1210 Leukemia (intraperitoneal) in B6D2F1 (BDF1) mice
Conditions: endpoint: mean survival time, higher = longer survival
Procedure, shortened: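 Survival endpoint. Drug-treated group vs vehicle group, expressed as T divided by C. Tumor passaged by transplantation.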

[1] = dose: 50.0 mg/kg/injection, schedule: Q04DX003 (ip), vehicle: saline
[2] = dose: 100.0 mg/kg/injection, schedule: Q04DX003 (ip), vehicle: saline
[3] = dose: 100.0 mg/kg/injection, schedule: Q01DX001 (ip), vehicle: saline
[4] = dose: 200.0 mg/kg/injection, schedule: Q01DX001 (ip), vehicle: saline
[5] = dose: 400.0 mg/kg/injection, schedule: Q01DX001 (ip), vehicle: saline
[6] = dose: 100.0 mg/kg/injection, schedule: Q04DX003 (ip), vehicle: Klucel (hydroxypropylcellulose) (HPC)
[7] = dose: 200.0 mg/kg/injection, schedule: Q04DX003 (ip), vehicle: Klucel (hydroxypropylcellulose) (HPC)
[8] = dose: 400.0 mg/kg/injection, schedule: Q04DX003 (ip), vehicle: Klucel (hydroxypropylcellulose) (HPC)

Compound: CC1(c2ccco2)NC(=O)N(Cl)C1=O (centres undefined)
- T/C (dose: 6.0 mg/kg/injection, schedule: Q04DX003 (ip), vehicle: saline): 93 % of control
- T/C (dose: 12.0 mg/kg/injection, schedule: Q04DX003 (ip), vehicle: saline): 101 % of control
- T/C (dose: 25.0 mg/kg/injection, schedule: Q01DX009 (ip), vehicle: saline): 87 % of control
- T/C (dose: 32.0 mg/kg/injection, schedule: Q04DX003 (ip), vehicle: saline): 95 % of control
- T/C (dose: 50.0 mg/kg/injection, schedule: Q01DX009 (ip), vehicle: saline): 98 % of control
- T/C [1]: 103 % of control
- T/C (dose: 100.0 mg/kg/injection, schedule: Q01DX009 (ip), vehicle: saline): 88 % of control
- T/C [2]: 97 % of control and 103 % of control

Compound: CC(C)(CO)NCc1ccccc1F
- T/C (dose: 75.0 mg/kg/injection, schedule: Q01DX001 (ip), vehicle: saline): 103 % of control
- T/C (dose: 150.0 mg/kg/injection, schedule: Q01DX001 (ip), vehicle: saline): 104 % of control
- T/C (dose: 300.0 mg/kg/injection, schedule: Q01DX001 (ip), vehicle: saline): 98 % of control

Compound: CC(=O)c1ccc2c(c1)Cc1ccccc1-2
- T/C (dose: 25.0 mg/kg/injection, schedule: Q04DX003 (ip), vehicle: saline): 105 % of control
- T/C [1]: 95 % of control
- T/C [3]: 90 % of control
- T/C [2]: 101 % of control
- T/C [4]: 90 % of control
- T/C (dose: 200.0 mg/kg/injection, schedule: Q04DX003 (ip), vehicle: saline): 96 % of control
- T/C [5]: 90 % of control
- T/C (dose: 400.0 mg/kg/injection, schedule: Q04DX003 (ip), vehicle: saline): 91 % of control

Compound: Nc1c(Cl)ncnc1Nc1ccc(C(=O)O)cc1
- T/C (dose: 50.0 mg/kg/injection, schedule: Q01DX001 (ip), vehicle: saline): 96 % of control
- T/C [3]: 98 % of control
- T/C [4]: 96 % of control
- T/C [5]: 96 % of control

Compound: CCCCn1cc(S(=O)(=O)Nc2ccccc2)c(=O)[nH]c1=O
- T/C (dose: 37.5 mg/kg/injection, schedule: Q01DX001 (ip), vehicle: saline with Tween-80): 104 % of control
- T/C (dose: 75.0 mg/kg/injection, schedule: Q01DX001 (ip), vehicle: saline with Tween-80): 98 % of control
- T/C (dose: 150.0 mg/kg/injection, schedule: Q01DX001 (ip), vehicle: saline with Tween-80): 98 % of control

Compound: CC(=O)OCCC/C(=C\c1ccccc1)[N+](=O)[O-]
- T/C [3]: 107 % of control

Compound: c1ccc(C2SCCSCCS2)cc1
- T/C (dose: 25.0 mg/kg/injection, schedule: Q01DX009 (ip), vehicle: saline with Tween-80): 92 % of control
- T/C (dose: 50.0 mg/kg/injection, schedule: Q01DX009 (ip), vehicle: saline with Tween-80): 86 % of control
- T/C (dose: 100.0 mg/kg/injection, schedule: Q01DX009 (ip), vehicle: saline with Tween-80): 86 % of control
- T/C [6]: 102 % of control
- T/C [7]: 100 % of control
- T/C [8]: 92 % of control

Compound: CC(=O)Nc1c(Cl)cccc1Cl
- T/C [6]: 95 % of control
- T/C [7]: 108 % of control
- T/C [8]: 110 % of control

Compound: O=S(=O)(CCCCl)Nc1ccccn1
- T/C (dose: 100.0 mg/kg/injection, schedule: Q04DX002 (ip), vehicle: saline with Tween-80): 100 % of control
- T/C (dose: 200.0 mg/kg/injection, schedule: Q04DX002 (ip), vehicle: saline with Tween-80): 93 % of control
- T/C (dose: 400.0 mg/kg/injection, schedule: Q04DX002 (ip), vehicle: saline with Tween-80): 93 % of control

Compound: Cc1cc(N(CCCl)CCCl)ccc1/C=N\Nc1nncn1N
- T/C (dose: 25.0 mg/kg/injection, schedule: Q01DX009 (ip), vehicle: carboxymethylcellulose (CMC)): 122 % of control
- T/C (dose: 100.0 mg/kg/injection, schedule: Q01DX001 (ip), vehicle: carboxymethylcellulose (CMC)): 100 % of control
- T/C (dose: 100.0 mg/kg/injection, schedule: Q01DX009 (ip), vehicle: carboxymethylcellulose (CMC)): 154 % of control
- T/C (dose: 200.0 mg/kg/injection, schedule: Q01DX001 (ip), vehicle: carboxymethylcellulose (CMC)): 100 % of control
- T/C (dose: 400.0 mg/kg/injection, schedule: Q01DX001 (ip), vehicle: carboxymethylcellulose (CMC)): 102 % of control

Compound: O=C(Nc1ccc(Cl)cc1Cl)P(=O)(O)c1ccccc1
- T/C (dose: 100.0 mg/kg/injection, schedule: Q01DX009 (ip), vehicle: Klucel (hydroxypropylcellulose) (HPC)): 92 % of control
- T/C (dose: 100.0 mg/kg/injection, schedule: Q04DX002 (ip), vehicle: Klucel (hydroxypropylcellulose) (HPC)): 101 % of control
- T/C (dose: 200.0 mg/kg/injection, schedule: Q01DX009 (ip), vehicle: Klucel (hydroxypropylcellulose) (HPC)): 103 % of control
- T/C (dose: 200.0 mg/kg/injection, schedule: Q04DX002 (ip), vehicle: Klucel (hydroxypropylcellulose) (HPC)): 90 % of control
- T/C (dose: 400.0 mg/kg/injection, schedule: Q01DX009 (ip), vehicle: Klucel (hydroxypropylcellulose) (HPC)): 92 % of control
